Results published in patent publication US10308648B2, “Inhibitors of cyclin-dependent kinase 7 (CDK7)” (Syros Pharmaceuticals, Inc., priority 2014, dated 2019).
Counter-ions that a name gives are not always drawn.

How the values were obtained:
[1] = molecular target: CDK7 (Homo sapiens (Human), UniProt P50613); experiment: CDK7 kinase activity (Life Technologies Adapta kinase assay); assay type: biochemical; conditions: 10 μM down to 0.514 nM, 3-fold serial dilutions, read-out: CDK7 Inhibition (IC50)
Protocol: Compounds of the invention were assayed for CDK7 activity at Life Technologies™ (Grand Island, N.Y.) using their commercially available Adapta® kinase assay services. Test compounds were tested at concentrations ranging from 10 μM down to 0.514 nM in a series of 3-fold serial dilutions. Details of this assay, including substrates used, are available on the Life Technologies web site (http://www.lifetechnologies.com/us/en/home/life-science/drug-discovery/target-and-lead-identification-and-validation/kinasebiology/kinase-activity-assays.html). The results of the assay are shown below in Table 3 where “A” represents a calculated IC50 of less than 100 nM; “B” represents a calculated IC50 of between 100 nM and 1 μM; and “C” represents a calculated IC50 of greater than 1 μM.

[2] = tested on: Jurkat cells; experiment: Inhibition of proliferation of Jurkat cells (CellTiter-Glo); assay type: cell-based; conditions: Homo sapiens, 72 hour proliferation assay
Protocol: Representative compounds of the invention were tested at different concentrations (from 10 μM to […]; 0.5 log serial dilutions) for their ability to inhibit the proliferation of Jurkat cells. Known CDK inhibitors flavopiridol and triptolide were used as positive controls. Cells were grown in RPMI 1640+10% FBS+1% Glutamax. The cells were supplemented with FBS (Life Technologies) and 100 U·mL^−1 penicillin, 100 μg·mL^−1 streptomycin (Invitrogen) and cultured at 37° C. in a humidified chamber in the presence of 5% CO2. Proliferation assays were conducted over a 72 hour time period. CellTiter-Glo® (Promega Corporation, Madison, Wis. USA) was used to assess the anti-proliferative effects of the compounds following manufacturer's directions and utilizing the reagents supplied with the CellTiter-Glo® kit. In this table, “A” represents an IC50 of less than 500 nM; “B” an IC50 of between 500 nM and 5 μM; and “C” an IC50 of greater than 5 μM.

Chain of CDK7 (P50613 whole entry): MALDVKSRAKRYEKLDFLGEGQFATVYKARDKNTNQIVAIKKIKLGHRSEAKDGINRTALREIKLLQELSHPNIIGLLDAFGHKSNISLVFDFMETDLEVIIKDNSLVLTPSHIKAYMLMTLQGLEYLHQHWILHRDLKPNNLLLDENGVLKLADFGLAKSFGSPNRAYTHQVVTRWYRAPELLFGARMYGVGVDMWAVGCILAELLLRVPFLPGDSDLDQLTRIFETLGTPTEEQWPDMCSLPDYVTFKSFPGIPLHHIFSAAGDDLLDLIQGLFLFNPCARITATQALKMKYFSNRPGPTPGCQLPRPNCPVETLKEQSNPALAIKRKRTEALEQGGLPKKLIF
Chain of CDK7 (P51946 whole entry partner): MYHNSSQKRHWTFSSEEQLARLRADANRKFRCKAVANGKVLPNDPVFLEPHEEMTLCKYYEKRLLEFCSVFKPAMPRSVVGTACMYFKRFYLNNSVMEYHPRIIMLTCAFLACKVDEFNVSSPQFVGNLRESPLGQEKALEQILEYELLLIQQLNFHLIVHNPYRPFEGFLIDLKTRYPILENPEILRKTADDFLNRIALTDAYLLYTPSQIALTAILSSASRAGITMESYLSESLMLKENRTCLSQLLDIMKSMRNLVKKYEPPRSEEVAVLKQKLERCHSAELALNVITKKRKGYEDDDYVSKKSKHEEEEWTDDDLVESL
Chain of CDK7 (P51948 whole entry partner): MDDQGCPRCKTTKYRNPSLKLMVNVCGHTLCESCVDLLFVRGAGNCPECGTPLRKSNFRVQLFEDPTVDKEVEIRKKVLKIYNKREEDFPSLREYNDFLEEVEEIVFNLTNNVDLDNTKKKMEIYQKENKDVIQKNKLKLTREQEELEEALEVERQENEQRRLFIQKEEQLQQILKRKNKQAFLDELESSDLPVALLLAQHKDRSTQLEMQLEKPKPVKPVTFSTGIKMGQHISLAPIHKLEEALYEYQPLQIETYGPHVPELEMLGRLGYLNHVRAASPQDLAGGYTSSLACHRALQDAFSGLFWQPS

| SMILES | IC50 [1] | IC50 [2] |
| --- | --- | --- |
| Nc1ccc(C(=O)N[C@H]2CCC[C@@H](Nc3nccc(-c4c[nH]c5ccccc45)n3)C2)cc1 [Compound 114, N-((1S,3R)-3-(4-(1H-indol-3-yl)pyrimidin-2-ylamino)cyclohexyl)-4-aminobenzamide] | > 1 µM | – |
| Nc1ccc(C(=O)N[C@H]2CCC[C@@H](Nc3ncc(Cl)c(-c4cccnc4)n3)C2)cc1 [Compound 108, 4-amino-N-((1S,3R)-3-(5-chloro-4-(pyridin-3-yl)pyrimidin-2-ylamino)cyclohexyl)benzamide] | > 1 µM | > 5 µM |
| Nc1ccc(C(=O)NC23CCCC(Nc4ncc(Cl)c(-c5c[nH]c6ccccc56)n4)(C2)C3)cc1 [Compound 104, 4-amino-N-(5-(5-chloro-4-(1H-indol-3-yl)pyrimidin-2-ylamino)bicyclo[3.1.1]heptan-1-yl)benzamide] | 0.1 to 1 µM | > 5 µM |
| NC(=O)C(=O)Nc1ccc(C(=O)N[C@H]2CCC[C@@H](Nc3ncc(Cl)c(-c4c[nH]c5ccccc45)n3)C2)cc1 [Compound 113, N1-(4-(((1S,3R)-3-((5-chloro-4-(1H-indol-3-yl)pyrimidin-2-yl)amino)cyclohexyl)carbamoyl)phenyl)oxalamide] | 0.1 to 1 µM | 0.5 to 5 µM |
| Nc1ccc(S(=O)(=O)N[C@H]2CCC[C@@H](Nc3ncc(Cl)c(-c4c[nH]c5ccccc45)n3)C2)cc1 [Compound 109, 4-amino-N-((1S,3R)-3-(5-chloro-4-(1H-indol-3-yl)pyrimidin-2-ylamino)cyclohexyl)benzenesulfonamide] | 0.1 to 1 µM | 0.5 to 5 µM |
| Nc1ccc(C(=O)NC23CC4CC(C2)CC(Nc2ncc(Cl)c(-c5c[nH]c6ccccc56)n2)(C4)C3)cc1 [Compound 100, 4-amino-N-(3-(5-chloro-4-(1H-indol-3-yl)pyrimidin-2-ylamino)tricyclo[3.3.1.1^3,7]decanyl)benzamide] | > 1 µM | – |
| Nc1ccc(C(=O)N[C@H]2CCC[C@@H](Nc3ncc(Cl)c(-c4c[nH]c5ccccc45)n3)C2)cc1F [Compound 111, 4-amino-N-((1S,3R)-3-(5-chloro-4-(1H-indol-3-yl)pyrimidin-2-ylamino)cyclohexyl)-3-fluorobenzamide] | 0.1 to 1 µM | > 5 µM |

Further lines, results first:

| IC50 [1] | IC50 [2] | SMILES |
| --- | --- | --- |
| < 0.1 µM | 0.5 to 5 µM | Nc1ccc(C(=O)N[C@H]2C[C@H](O)C[C@@H](Nc3ncc(Cl)c(-c4c[nH]c5ccccc45)n3)C2)cc1 (racemic) [Compound 101, (+/−)-4-amino-N-(3-(5-chloro-4-(1H-indol-3-yl)pyrimidin-2-ylamino)-5-hydroxycyclohexyl)benzamide] |
| 0.1 to 1 µM | > 5 µM | Nc1ccc(C(=O)N[C@H]2CCC[C@@H](Nc3ncc(C4CC4)c(-c4c[nH]c5ccccc45)n3)C2)cc1 [Compound 103, 4-amino-N-((1S,3R)-3-(5-cyclopropyl-4-(1H-indol-3-yl)pyrimidin-2-ylamino)cyclohexyl)benzamide.HCl] |
| < 0.1 µM | > 5 µM | Nc1ccc(NC(=O)[C@H]2CCC[C@@H](Nc3ncc(Cl)c(-c4c[nH]c5ccccc45)n3)C2)cc1 [Compound 106, (1S,3R)—N-(4-aminophenyl)-3-(5-chloro-4-(1H-indol-3-yl)pyrimidin-2-ylamino)cyclohexanecarboxamide] |
| 0.1 to 1 µM | – | Nc1ccc(C(=O)NC2CC(F)CC(Nc3ncc(Cl)c(-c4c[nH]c5ccccc45)n3)C2)cc1 (racemic) [Compound 110, (+/−)-4-amino-N-(3-(5-chloro-4-(1H-indol-3-yl)pyrimidin-2-ylamino)-5-fluorocyclohexyl)benzamide] |
| 0.1 to 1 µM | > 5 µM | Nc1ccc(C(=O)N[C@H]2CCC[C@@H](Nc3ncc(Cl)c(-c4c[nH]c5ccccc45)n3)C2)cc1 [Compound 102, 4-amino-N-((1S,3R)-3-(5-chloro-4-(1H-indol-3-yl)pyrimidin-2-ylamino)cyclohexyl)benzamide] |
| 0.1 to 1 µM | 0.5 to 5 µM | Nc1ccc(C(=O)N[C@H]2CCC[C@@H](Nc3ncc(Cl)c(-c4c[nH]c5ccccc45)n3)C2)c(F)c1 [Compound 112, 4-amino-N-((1S,3R)-3-(5-chloro-4-(1H-indol-3-yl)pyrimidin-2-ylamino)cyclohexyl)-2-fluorobenzamide] |
| < 0.1 µM | 0.5 to 5 µM | CN(C)CCCC(=O)Nc1ccc(C(=O)N[C@H]2CCC[C@@H](Nc3ncc(Cl)c(-c4c[nH]c5ccccc45)n3)C2)cc1 [Compound 105, N-((1S,3R)-3-((5-chloro-4-(1H-indol-3-yl)pyrimidin-2-yl)amino)cyclohexyl)-4-(4-(dimethylamino)butanamido)benzamide] |
| < 0.1 µM | < 0.5 µM | N#Cc1cnc(N[C@@H]2CCC[C@H](NC(=O)c3ccc(N)cc3)C2)nc1-c1c[nH]c2ccccc12 [Compound 107, 4-amino-N-((1S,3R)-3-(5-cyano-4-(1H-indol-3-yl)pyrimidin-2-ylamino)cyclohexyl)benzamide] |
